# Experimental data reported in patent publication US12486298B2, “Fucosyltransferase specific inhibition using fucose mimetics” (THE FLORIDA INTERNATIONAL UNIVERSITY BOARD OF TRUSTEES, priority 2020, dated 2025).
# Tests used:
# Type in all cases: cell-based
# [1] = molecular target: T1, fucosyltransferase VII (FTVII) (Homo sapiens, UniProt Q11130); experiment: FTVII exofucosylation of mesenchymal stem cells (MSC), sLe^x by flow cytometry; conditions: MSCs
# T1 sequence (Q11130 37-342 limits assumed): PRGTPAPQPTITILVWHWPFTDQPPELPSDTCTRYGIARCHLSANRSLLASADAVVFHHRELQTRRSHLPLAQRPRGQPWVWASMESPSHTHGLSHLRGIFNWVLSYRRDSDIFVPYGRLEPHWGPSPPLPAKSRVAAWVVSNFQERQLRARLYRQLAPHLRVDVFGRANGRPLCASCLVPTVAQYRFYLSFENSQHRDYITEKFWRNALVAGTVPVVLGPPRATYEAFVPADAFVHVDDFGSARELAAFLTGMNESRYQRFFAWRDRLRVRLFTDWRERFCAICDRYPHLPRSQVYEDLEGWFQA
# Protocol: (§1) A Canto II (BD Biosciences) flow cytometer was utilized for flow cytometry and the data acquired was analyzed using FlowJo Software (Treestar). Cells were stained using antibodies specific to sLe^X (Alexa-Fluor 488 Mouse Anti-Human CD15s (BD Biosciences)), or Le^X (APC anti-human CD15 (SSEA-1) Antibody (BioLegend)).
# (§2) Cells of the RPMI-8402 cell line and MSC cell line were treated with either 0.3 ug of fucosyltransferase VI (FTVI), 2.7 ug of fucosyltransferase VII (FTVII), 1.0 ug fucosyltransferase IX (FTIX) or buffer-only at 37° C. for 60 minutes. All reactions contained at 1×10^6 cells/30 ul in HBSS with 10 mM Hepes, 0.1% Human Serum Albumin, and 1.0 mM GDP fucose (GDP-Fuc) (Carbosynth) and the appropriate fucosytransferase. Then, mimetic 1 was added to each of the treatment groups in molar equivalents with respect to GDP-Fuc with each of the fucosytransferases. […]
# (§3) Mimetic 1 (FIG. 1) was tested as an inhibitor of FT-mediated exofucosylation on these cells and the extent of fucosylation was monitored using antibodies that detect the creation of the relevant fucosylated epitopes, i.e., sLe^x or Le^x. […]
# [2] = molecular target: T2, fucosyltransferase IX (FTIX) (Homo sapiens, UniProt Q9Y231); experiment: FTIX exofucosylation of mesenchymal stem cells (MSC), Le^x by flow cytometry; conditions: MSCs; same conditions as RPMI-8402 cells
# T2 sequence (Q9Y231 1-359): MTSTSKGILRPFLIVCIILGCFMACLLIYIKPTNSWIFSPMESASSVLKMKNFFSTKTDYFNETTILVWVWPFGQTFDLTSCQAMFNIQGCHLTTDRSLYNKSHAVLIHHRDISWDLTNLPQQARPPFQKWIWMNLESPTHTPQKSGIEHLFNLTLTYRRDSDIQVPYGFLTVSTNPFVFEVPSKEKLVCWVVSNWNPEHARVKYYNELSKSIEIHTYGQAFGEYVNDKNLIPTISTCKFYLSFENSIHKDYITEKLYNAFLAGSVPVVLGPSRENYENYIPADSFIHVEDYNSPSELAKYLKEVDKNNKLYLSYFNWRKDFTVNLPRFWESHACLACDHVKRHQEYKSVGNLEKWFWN
# Protocol: as §1, §2, §3
# [3] = molecular target: T3, fucosyltransferase VI (FTVI) (Homo sapiens, UniProt P51993); experiment: FTVI exofucosylation of RPMI-8402 cells, sLe^x and Le^x by flow cytometry
# T3 construct: purchased R&D systems
# T3 sequence (P51993 35-359 limits assumed): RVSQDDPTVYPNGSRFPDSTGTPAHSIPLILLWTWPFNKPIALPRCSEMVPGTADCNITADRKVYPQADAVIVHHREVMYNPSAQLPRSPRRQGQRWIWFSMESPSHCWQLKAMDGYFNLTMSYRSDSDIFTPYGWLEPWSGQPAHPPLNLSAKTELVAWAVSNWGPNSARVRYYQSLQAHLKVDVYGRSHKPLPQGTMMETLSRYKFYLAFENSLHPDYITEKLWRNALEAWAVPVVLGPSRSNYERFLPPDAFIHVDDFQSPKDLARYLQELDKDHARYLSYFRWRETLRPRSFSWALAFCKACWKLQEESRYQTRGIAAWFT
# Protocol: A titration of GDP-Fucose was carried out to determine the maximum mean fluorescent intensity (MFI) of sLe^X and Le^X via flow cytometry for downstream inhibition experiments. Generally, 1×10^6 cells were used in each FTVI exofucosylation reaction and all reactions were carried out in triplicate. Cells were then stained with either Alexa-Fluor 488 Mouse Anti-Human CD15s (BD Biosciences), or APC anti-human CD15 (SSEA-1) Antibody (BioLegend). Cells were then acquired on a Canto II (BD Biosciences) flow cytometer and analylized using Flowjo software (Treestar). FTVI was purchased from R&D systems.
# as §1
# Cells of the RPMI-8402 cell line and MSC cell line were treated with either 0.3 ug of fucosyltransferase VI (FTVI), 2.7 ug of fucosyltransferase VII (FTVII), 1.0 ug fucosyltransferase IX (FTIX) or buffer-only at 37° C. for 60 minutes. All reactions contained at 1×10^6 cells/30 ul in HBSS with 10 mM Hepes, 0.1% Human Serum Albumin, and 1.0 mM GDP fucose (GDP-Fuc) (Carbosynth) and the appropriate fucosytransferase. Then, mimetic 1 was added to each of the treatment groups in molar equivalents with respect to GDP-Fuc with each of the fucosytransferases. The treatment groups were as follows: 1:1 GDP-Fuc to mimetic 1 (i.e., 1.0 mM GDP-Fuc and 1.0 mM mimetic), 1:2 GDP-Fuc to mimetic 1 (i.e., 1.0 mM GDP-Fuc and 2.0 mM mimetic), or preincubated in presence of FT with a 2.0 mM solution of the mimetic 1 for 45 minutes followed by addition of a 1.0 mM solution of GDP-Fuc for 1 hour. Concentrations of the various FTs were utilized that would maximize the MFI to allow the detection of the efficacy of mimetic 1 to inhibit the various enzymes.
# Exofucosylation is a technique whereby a pertinent FT together with GDP-Fuc is placed in a cell suspension to stereoselectively install fucose on pertinent acceptor cell surface glycan(s). For the case of α-1,3-FTs, this approach provides the ability to pinpoint the effect(s) of mimetic addition on creation of fucosylated glycans Le^x and sLe^x, while keeping the rest of the cell's biological functions and its viability intact. Specifically, this study focused on three α-1,3-FTs that can create sLe^x and Le^x determinants: FTVII, FTIX, and FTVI. […]
# as §3
# [4] = RPMI-8402 cells, 1.0 mM GDP-Fuc with 1.0 mM or 2.0 mM mimetic 1
compound,measurement,setting,value
CC1OC2Oc3ccc(CC(=O)O)cc3SC2C(O)C1O (stereo not shown) [mimetic 1],inhibition of FTVII sLe^x production,[1]; 1.0 mM GDP-Fuc with 1.0 mM or 2.0 mM mimetic 1,inhibition was clear
same,level of FTVII inhibition in pre-incubation reactions,"[1]; pre-incubation with 2.0 mM mimetic 1, then 1.0 mM GDP-Fuc",stronger
same,inhibition of FTIX production of Le^x,[2],did not inhibit FTIX production of Le^x
same,inhibition of FTVI production of Le^x,[3]; [4],clearly inhibited
same,inhibition of FTVI production of sLe^x,[3]; [4],markedly diminished
same,inhibition of FTVI-mediated exofucosylation after pre-incubation,[3]; pre-incubation with 2.0 mM mimetic 1 prior to addition of GDP-Fuc,inhibited more completely
same,concentration of highest inhibition against FTVI,"[3]; titration of mimetic 1, 1.0 mM GDP-Fuc, RPMI-8402 cells, bell-shaped curve",2.0 mM
